Experimental data: PubChem BioAssay AID248 (DTP/NCI, 2004)
Where “and” joins values, the source holds several entries; their conditions need not be identical. Equal entries are not always repeated. Toxic doses and inconclusive results are not listed. Rule as the data show it: active = T/C of 150% or more; inactive = T/C below 125%.

Test system: L1210 leukemia ip in BDF1 mice, survival T/C
Assay: NCI In Vivo Anticancer Drug Screen. Data for tumor model L1210 Leukemia (intraperitoneal) in B6D2F1 (BDF1) mice
Settings: endpoint: mean survival time, higher = longer survival
How it was run: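 Transplantable tumor model; survival measured in treated vs vehicle control mice. Value = treated/control.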

[1] = dose: 100.0 mg/kg/injection, schedule: Q01DX009 (ip), vehicle: Klucel (hydroxypropylcellulose) (HPC)
[2] = dose: 200.0 mg/kg/injection, schedule: Q01DX009 (ip), vehicle: Klucel (hydroxypropylcellulose) (HPC)
[3] = dose: 400.0 mg/kg/injection, schedule: Q01DX009 (ip), vehicle: Klucel (hydroxypropylcellulose) (HPC)
[4] = dose: 50.0 mg/kg/injection, schedule: Q01DX009 (ip), vehicle: saline with Tween-80
[5] = dose: 100.0 mg/kg/injection, schedule: Q01DX009 (ip), vehicle: saline with Tween-80
[6] = dose: 200.0 mg/kg/injection, schedule: Q01DX009 (ip), vehicle: saline with Tween-80
[7] = dose: 200.0 mg/kg/injection, schedule: Q01DX001 (ip), vehicle: carboxymethylcellulose (CMC)
[8] = dose: 400.0 mg/kg/injection, schedule: Q01DX001 (ip), vehicle: carboxymethylcellulose (CMC)
[9] = dose: 400.0 mg/kg/injection, schedule: Q01DX009 (ip), vehicle: saline with Tween-80
[10] = dose: 100.0 mg/kg/injection, schedule: Q04DX002 (ip), vehicle: Klucel (hydroxypropylcellulose) (HPC)
[11] = dose: 200.0 mg/kg/injection, schedule: Q04DX002 (ip), vehicle: Klucel (hydroxypropylcellulose) (HPC)
[12] = dose: 400.0 mg/kg/injection, schedule: Q04DX002 (ip), vehicle: Klucel (hydroxypropylcellulose) (HPC)
[13] = dose: 100.0 mg/kg/injection, schedule: Q04DX003 (ip), vehicle: Klucel (hydroxypropylcellulose) (HPC)
[14] = dose: 200.0 mg/kg/injection, schedule: Q04DX003 (ip), vehicle: Klucel (hydroxypropylcellulose) (HPC)
[15] = dose: 400.0 mg/kg/injection, schedule: Q04DX003 (ip), vehicle: Klucel (hydroxypropylcellulose) (HPC)
[16] = dose: 100.0 mg/kg/injection, schedule: Q01DX001 (ip), vehicle: saline with Tween-80
[17] = dose: 200.0 mg/kg/injection, schedule: Q01DX001 (ip), vehicle: saline with Tween-80
[18] = dose: 400.0 mg/kg/injection, schedule: Q01DX001 (ip), vehicle: saline with Tween-80
[19] = dose: 100.0 mg/kg/injection, schedule: Q01DX009 (ip), vehicle: saline
[20] = dose: 100.0 mg/kg/injection, schedule: Q04DX003 (ip), vehicle: saline
[21] = dose: 200.0 mg/kg/injection, schedule: Q01DX009 (ip), vehicle: saline
[22] = dose: 200.0 mg/kg/injection, schedule: Q04DX003 (ip), vehicle: saline
[23] = dose: 400.0 mg/kg/injection, schedule: Q04DX003 (ip), vehicle: saline
[24] = dose: 100.0 mg/kg/injection, schedule: Q04DX002 (ip), vehicle: saline with Tween-80
[25] = dose: 200.0 mg/kg/injection, schedule: Q04DX002 (ip), vehicle: saline with Tween-80
[26] = dose: 400.0 mg/kg/injection, schedule: Q04DX002 (ip), vehicle: saline with Tween-80
[27] = dose: 100.0 mg/kg/injection, schedule: Q01DX001 (ip), vehicle: saline

Measured: T/C

Cc1ccc(NC(=O)Oc2ccc(Cl)cc2Cl)cc1NC(=O)Oc1ccc(Cl)cc1Cl
inactive: [1] 89 % of control | [2] 94 % of control | [3] 89 % of control

O=c1[nH]ncc(Cl)c1Cl
inactive: dose: 12.5 mg/kg/injection, schedule: Q01DX009 (ip), vehicle: saline with Tween-80 92 % of control | dose: 25.0 mg/kg/injection, schedule: Q01DX009 (ip), vehicle: saline with Tween-80 95 % of control | [4] 106 % of control | [5] 87 % of control | [6] 87 % of control

O=C1C(=O)c2ccccc2C=C1[N+](=O)[O-]
inactive: dose: 5.0 mg/kg/injection, schedule: Q01DX009 (ip), vehicle: saline 92 % of control | dose: 5.0 mg/kg/injection, schedule: Q04DX003 (ip), vehicle: saline 108 % of control | dose: 10.0 mg/kg/injection, schedule: Q01DX009 (ip), vehicle: saline 101 % of control | dose: 10.0 mg/kg/injection, schedule: Q04DX003 (ip), vehicle: saline 96 % of control | dose: 20.0 mg/kg/injection, schedule: Q01DX009 (ip), vehicle: saline 99 % of control | dose: 20.0 mg/kg/injection, schedule: Q04DX003 (ip), vehicle: saline 93 % of control

CCOP(=O)(Nc1ccc2c(c1)Cc1cc(Br)ccc1-2)OCC
inactive: dose: 50.0 mg/kg/injection, schedule: Q01DX001 (ip), vehicle: carboxymethylcellulose (CMC) 105 % of control | dose: 100.0 mg/kg/injection, schedule: Q01DX001 (ip), vehicle: carboxymethylcellulose (CMC) 92 % of control | [7] 105 % of control | [8] 108 % of control

Cc1ccc(C2OCC(CCl)O2)cc1 (stereo not given)
inactive: dose: 222.0 mg/kg/injection, schedule: Q01DX Z (ip), vehicle: methylcellulose (MC) 108 % of control | dose: 333.0 mg/kg/injection, schedule: Q01DX Z (ip), vehicle: methylcellulose (MC) 96 % of control | dose: 500.0 mg/kg/injection, schedule: Q01DX Z (ip), vehicle: methylcellulose (MC) 102 % of control

CCCCC(C)(C)COC(=O)Nc1ccccc1
inactive: dose: 100.0 mg/kg/injection, schedule: Q04DX003 (ip), vehicle: other 92 % of control | dose: 200.0 mg/kg/injection, schedule: Q04DX003 (ip), vehicle: other 104 % of control | dose: 400.0 mg/kg/injection, schedule: Q04DX003 (ip), vehicle: other 101 % of control

CC(C)(C)C1CCC(N=C(N)CS)CC1 (stereo not given)
inactive: dose: 1.5 mg/kg/injection, schedule: Q01DX001 (ip), vehicle: carboxymethylcellulose (CMC) 98 % of control | dose: 3.0 mg/kg/injection, schedule: Q01DX001 (ip), vehicle: carboxymethylcellulose (CMC) 98 % of control | dose: 6.0 mg/kg/injection, schedule: Q01DX001 (ip), vehicle: carboxymethylcellulose (CMC) 95 % of control

CC1(C)C2(SCCS2)C(C)(C)C12SCCS2
inactive: [1] 96 % of control | [2] 95 % of control | [3] 104 % of control

CCCNC(=O)Oc1ccc(C(=O)OCC)cc1
inactive: [5] 93 % of control | [6] 98 % of control | [9] 94 % of control

Nc1ncnc2nc(CO)[nH]c12
inactive: [10] 92 % of control | [11] 100 % of control | [12] 95 % of control

CCCCCCCCCCCCCCCSc1ccc2ccccc2c1
inactive: [13] 92 % of control | [14] 91 % of control | [15] 92 % of control

CN(C)N=Nc1ccc(C#N)cc1
inactive: dose: 50.0 mg/kg/injection, schedule: Q01DX001 (ip), vehicle: saline with Tween-80 105 % of control | [4] 96 % of control | dose: 50.0 mg/kg/injection, schedule: Q04DX003 (ip), vehicle: saline with Tween-80 101 % of control | [16] 106 % of control | [5] 91 % of control | dose: 100.0 mg/kg/injection, schedule: Q04DX003 (ip), vehicle: saline with Tween-80 105 % of control | [17] 118 % of control | [6] 100 % of control | dose: 200.0 mg/kg/injection, schedule: Q04DX003 (ip), vehicle: saline with Tween-80 97 % of control | [18] 122 % of control | [9] 102 % of control | dose: 400.0 mg/kg/injection, schedule: Q04DX003 (ip), vehicle: saline with Tween-80 108 % of control

COc1ccc(C(=O)N/N=C/c2cccc3ccccc23)cc1
inactive: [1] 105 % of control | [2] 103 % of control | [3] 108 % of control

CCCCCSC
inactive: [19] 93 % of control | [20] 102 % of control | [21] 95 % of control | [22] 105 % of control | dose: 400.0 mg/kg/injection, schedule: Q01DX009 (ip), vehicle: saline 88 % of control | [23] 100 % of control

Nc1nc(SCc2ccccc2)c2ncnnc2n1
inactive: [16] 97 % of control | [17] 103 % of control | [18] 98 % of control

Cc1ccc(S(=O)(=O)OCC2C3C=CC(C4C=CC43)C2COS(=O)(=O)c2ccc(C)cc2)cc1 (stereo not given)
inactive: [10] 94 % of control | [11] 98 % of control | [12] 98 % of control

C(/C=C/C=C/N1CCCCC1)=[N+]1CCCCC1
inactive: dose: 0.39 mg/kg/injection, schedule: Q04DX003 (ip), vehicle: saline 112 % of control | dose: 0.78 mg/kg/injection, schedule: Q04DX003 (ip), vehicle: saline 93 % of control | dose: 1.56 mg/kg/injection, schedule: Q04DX003 (ip), vehicle: saline 105 % of control

O=C(N/N=C/c1ccccc1O)C(O)C(O)C(O)C(O)CO (stereo not given)
inactive: [24] 92 % of control | [25] 106 % of control | [26] 95 % of control

COc1ccc2c3c1OC1C(OC(C)=O)=CCC4C(C2)N(C)CCC314 (stereo not given)
inactive: [27] 93 % of control

O=C(Nc1ccccc1)OCC(Cl)(Cl)Cl
inactive: dose: 100.0 mg/kg/injection, schedule: Q01DX001 (ip), vehicle: saline sonified 105 % of control | [1] 100 % of control | [20] 91 % of control | dose: 200.0 mg/kg/injection, schedule: Q01DX001 (ip), vehicle: saline sonified 108 % of control | [2] 107 % of control | [22] 100 % of control | dose: 400.0 mg/kg/injection, schedule: Q01DX001 (ip), vehicle: saline sonified 103 % of control | [3] 100 % of control | [23] 96 % of control

O=CCc1ccc2c(c1)OCO2
inactive: [7] 92 % of control | [8] 108 % of control

CC1OC(C2COC(C)(C)O2)C2OCOC12 (stereo not given)
inactive: [24] 100 % of control | [25] 100 % of control | [26] 100 % of control

Cc1ccc(Cl)cc1NC(=O)Oc1ccccc1C(=O)OCc1ccccc1
inactive: [5] 97 % of control | [6] 100 % of control | [9] 94 % of control

NC(N)=NCCCCCC(=O)Oc1ccc([N+](=O)[O-])cc1
inactive: dose: 50.0 mg/kg/injection, schedule: Q01DX009 (ip), vehicle: saline 105 % of control | [19] 99 % of control and 100 % of control | [20] 92 % of control | [21] 100 % of control and 101 % of control | [22] 92 % of control

O=C(Cn1cc(F)c(=O)[nH]c1=O)N1CCC2(CC1)SSC1(CCN(C(=O)Cn3cc(F)c(=O)[nH]c3=O)CC1)S2
inactive: [19] 96 % of control | [20] 104 % of control | [21] 96 % of control | [22] 97 % of control | [23] 97 % of control

O=c1cc(NC(c2ccccc2)c2ccccc2)[nH]c(=O)[nH]1
inactive: [13] 97 % of control | [14] 97 % of control | [15] 98 % of control

COCCOC(=O)c1ccc(C(=N)N)cc1
inactive: [27] 106 % of control | dose: 200.0 mg/kg/injection, schedule: Q01DX001 (ip), vehicle: saline 100 % of control
